Where two headings read alike, the source gives them in different places.
Assays:
786-0 = assay: NCI growth inhibition and cytotoxicity screen, Renal Cancer panel; conditions: Homo sapiens; for GI50: 786-0; for CC50: 786-0, read-out: LC50
CAKI-1 = assay: as above; conditions: Homo sapiens; for GI50: CAKI-1; for CC50: CAKI-1, read-out: LC50
SF-268 = assay: NCI growth inhibition and cytotoxicity screen, CNS Cancer panel; conditions: Homo sapiens; for GI50: SF-268; for CC50: SF-268, read-out: LC50
SF-295 = assay: as above; type: cell-based; conditions: Homo sapiens; for CC50: read-out: LC50 (the source's name)
HCT-15 = assay: NCI growth inhibition and cytotoxicity screen, Colon Cancer panel; conditions: Homo sapiens; for GI50: HCT-15; for CC50: HCT-15, read-out: LC50
NCI-H23 = assay: NCI growth inhibition and cytotoxicity screen, Lung Cancer panel; conditions: Homo sapiens; for GI50: NCI-H23; for CC50: NCI-H23, read-out: LC50
NCI-H460 = assay: as above; conditions: Homo sapiens; for GI50: NCI-H460; for CC50: NCI-H460, read-out: LC50
SNB-19 = assay: NCI growth inhibition and cytotoxicity screen, CNS Cancer panel; conditions: Homo sapiens; for GI50: SNB-19; for CC50: SNB-19, read-out: LC50
HT29 = assay: NCI growth inhibition and cytotoxicity screen, Colon Cancer panel; conditions: Homo sapiens; for GI50: HT-29; for CC50: HT-29, read-out: LC50
SK-OV-3 = assay: NCI growth inhibition and cytotoxicity screen, Ovarian Cancer panel; conditions: Homo sapiens; for GI50: SK-OV-3; for CC50: SK-OV-3, read-out: LC50
BT-549 = assay: NCI growth inhibition and cytotoxicity screen, Breast Cancer panel; conditions: Homo sapiens; for GI50: BT-549; for CC50: BT-549, read-out: LC50
KM12 = assay: NCI growth inhibition and cytotoxicity screen, Colon Cancer panel; conditions: Homo sapiens; for GI50: KM12; for CC50: KM12, read-out: LC50
NCI-H322M = assay: NCI growth inhibition and cytotoxicity screen, Lung Cancer panel; conditions: Homo sapiens; for CC50: read-out: LC50
SN12C = assay: NCI growth inhibition and cytotoxicity screen, Renal Cancer panel; conditions: Homo sapiens; for CC50: read-out: LC50
NCI-H226 = assay: NCI growth inhibition and cytotoxicity screen, Lung Cancer panel; conditions: Homo sapiens; for GI50: NCI-H226; for CC50: NCI-H226, read-out: LC50
K-562 = assay: NCI growth inhibition and cytotoxicity screen, Leukemia panel; conditions: Homo sapiens; for GI50: K562; for CC50: K562, read-out: LC50
SR = assay: as above; conditions: Homo sapiens; for CC50: read-out: LC50
U251 = assay: NCI growth inhibition and cytotoxicity screen, CNS Cancer panel; conditions: Homo sapiens; for GI50: U-251; for CC50: U-251, read-out: LC50
UO-31 = assay: NCI growth inhibition and cytotoxicity screen, Renal Cancer panel; conditions: Homo sapiens; for GI50: UO-31; for CC50: UO-31, read-out: LC50
MALME-3M = assay: NCI growth inhibition and cytotoxicity screen, Melanoma panel; conditions: Homo sapiens; for CC50: read-out: LC50
NCI/ADR-RES = assay: NCI growth inhibition and cytotoxicity screen, Ovarian Cancer panel; conditions: Homo sapiens; for CC50: read-out: LC50
HCT-116 = assay: NCI growth inhibition and cytotoxicity screen, Colon Cancer panel; conditions: Homo sapiens; for GI50: HCT-116; for CC50: HCT-116, read-out: LC50
LOX-IMVI = assay: NCI growth inhibition and cytotoxicity screen, Melanoma panel; conditions: Homo sapiens; for CC50: read-out: LC50
M14 = assay: as above; conditions: Homo sapiens; for GI50: M14; for CC50: M14, read-out: LC50
UACC-257 = assay: as above; conditions: Homo sapiens; for GI50: UACC-257; for CC50: UACC-257, read-out: LC50
SW-620 = assay: NCI growth inhibition and cytotoxicity screen, Colon Cancer panel; conditions: Homo sapiens; for GI50: SW-620; for CC50: SW-620, read-out: LC50
CCRF-CEM = assay: NCI growth inhibition and cytotoxicity screen, Leukemia panel; conditions: Homo sapiens; for CC50: read-out: LC50
IGROV1 = assay: NCI growth inhibition and cytotoxicity screen, Ovarian Cancer panel; conditions: Homo sapiens; for GI50: IGROV-1; for CC50: IGROV-1, read-out: LC50
[1] = system: full panel of 60 different cancer cell lines; assay: NCI five dose screen, full panel summary; type: cell-based, human; conditions: for GI50: Homo sapiens
[2] = SF-295, Table 1, cell line SF-2395 (CNS Cancer)
[3] = Table 2, cell line SF-295 (CNS Cancer)

## COc1cc(OC)cc(/C(C#N)=C/c2c[nH]c3ccccc23)c1 [Formula (I)(b)]
786-0
  GI50: 77.3 nM
  CC50: > 100 µM
CAKI-1
  GI50: 35 nM
  CC50: > 100 µM
SF-268
  GI50: 78.3 nM
  CC50: > 100 µM
SF-295; [2]
  GI50: 45.3 nM
  CC50: > 100 µM
HCT-15
  GI50: 53.5 nM
  CC50: > 100 µM
NCI-H23
  GI50: > 100 nM
  CC50: > 100 µM
NCI-H460
  GI50: 39.2 nM
  CC50: > 100 µM
SNB-19
  GI50: 62.1 nM
  CC50: > 100 µM
HT29
  GI50: 38.4 nM
  CC50: > 100 µM
SK-OV-3
  GI50: > 100 nM
  CC50: > 100 µM
BT-549
  GI50: > 100 nM
  CC50: > 100 µM
KM12
  GI50: 40.9 nM
  CC50: > 100 µM
NCI-H322M
  CC50: > 100 µM
SN12C
  GI50: 77.9 nM
  CC50: > 100 µM
NCI-H226
  GI50: > 100 nM
  CC50: > 100 µM
K-562
  GI50: 43.2 nM
  CC50: > 100 µM
SR
  GI50: 33.4 nM
  CC50: > 100 µM
U251
  GI50: 45.4 nM
  CC50: > 100 µM
UO-31
  GI50: > 100 nM
  CC50: > 100 µM
MALME-3M
  CC50: > 100 µM
NCI/ADR-RES
  GI50: 33.3 nM
  CC50: > 100 µM
HCT-116
  GI50: 42.5 nM
  CC50: > 100 µM
LOX-IMVI
  GI50: 78.4 nM
  CC50: > 100 µM
M14
  GI50: 42.4 nM
  CC50: > 100 µM
UACC-257
  GI50: 48.7 nM
  CC50: > 100 µM
SW-620
  GI50: 44.1 nM
  CC50: > 100 µM
CCRF-CEM
  GI50: 42.4 nM
  CC50: > 100 µM
IGROV1
  GI50: > 100 nM
  CC50: > 100 µM

## COc1cc(/C=C/c2cc3ccccc3o2)cc(OC)c1OC [Formula (I)(c)]
786-0
  GI50: 0.85 nM
  CC50: 79.8 µM
CAKI-1
  GI50: 0.58 nM
  CC50: > 100 µM
SF-268
  GI50: 0.86 nM
  CC50: > 100 µM
SF-295; [2]
  GI50: 0.35 nM
  CC50: > 100 µM
HCT-15
  GI50: 0.4 nM
  CC50: > 100 µM
NCI-H23
  GI50: 3.09 nM
  CC50: > 100 µM
NCI-H460
  GI50: 0.41 nM
  CC50: > 100 µM
SNB-19
  GI50: 0.58 nM
  CC50: > 100 µM
HT29
  GI50: 0.37 nM
  CC50: > 100 µM
SK-OV-3
  GI50: 0.65 nM
  CC50: > 100 µM
BT-549
  GI50: 1.09 nM
  CC50: 79.5 µM
KM12
  GI50: 0.5 nM
  CC50: > 100 µM
NCI-H322M
  GI50: 0.0159 µM
  CC50: > 100 µM
SN12C
  GI50: 4.09 nM
  CC50: > 100 µM
NCI-H226
  GI50: 1.1 nM
  CC50: > 100 µM
K-562
  CC50: > 100 µM
SR
  GI50: 0.09 nM
  CC50: > 100 µM
U251
  GI50: 0.66 nM
  CC50: 81.2 µM
UO-31
  GI50: 1.15 nM
  CC50: > 100 µM
MALME-3M
  GI50: 0.41 nM
  CC50: 86.3 µM
NCI/ADR-RES
  GI50: 0.51 nM
  CC50: > 100 µM
HCT-116
  GI50: 0.522 nM
  CC50: 77 µM
LOX-IMVI
  GI50: 0.89 nM
  CC50: 60.4 µM
M14
  GI50: 0.47 nM
  CC50: 88.4 µM
UACC-257
  GI50: 16.4 nM
  CC50: > 100 µM
SW-620
  GI50: 0.44 nM
  CC50: > 100 µM
CCRF-CEM
  GI50: 0.42 nM
  CC50: > 100 µM
IGROV1
  GI50: 0.8 nM
  CC50: > 100 µM

## COc1cc(/C=C/c2nc3ccccc3s2)cc(OC)c1OC [Formula (I)(d)]
786-0
  GI50: 1.32 nM
  CC50: > 100 µM
CAKI-1
  GI50: 0.14 nM
  CC50: > 100 µM
SF-268
  GI50: 0.56 nM
  CC50: > 100 µM
SF-295; [2]
  GI50: 0.07 nM
  CC50: > 100 µM
HCT-15
  GI50: 0.063 nM
  CC50: > 100 µM
NCI-H23
  GI50: 0.72 nM
  CC50: > 100 µM
NCI-H460
  GI50: 0.11 nM
  CC50: > 100 µM
SNB-19
  GI50: 0.095 nM
  CC50: > 100 µM
HT29
  GI50: 0.038 nM
  CC50: > 100 µM
SK-OV-3
  GI50: 0.16 nM
  CC50: > 100 µM
BT-549
  GI50: 3.7 nM
  CC50: 58.8 µM
KM12
  GI50: 0.072 nM
  CC50: 41.6 µM
NCI-H322M
  CC50: > 100 µM
SN12C
  GI50: 9.37 nM
  CC50: > 100 µM
NCI-H226
  GI50: 0.24 nM
  CC50: 88.5 µM
K-562
  GI50: 0.041 nM
  CC50: > 100 µM
SR
  GI50: 0.036 nM
  CC50: > 100 µM
U251
  GI50: 0.88 nM
  CC50: > 100 µM
UO-31
  GI50: 0.37 nM
  CC50: > 100 µM
MALME-3M
  GI50: 0.07 nM
  CC50: 51.6 µM
NCI/ADR-RES
  GI50: 0.1 nM
  CC50: > 100 µM
HCT-116
  GI50: 0.0072 nM
  CC50: > 100 µM
LOX-IMVI
  GI50: 1.9 nM
  CC50: 67.9 µM
M14
  GI50: 0.063 nM
  CC50: 48.5 µM
UACC-257
  GI50: 15 nM
  CC50: > 100 µM
SW-620
  GI50: 0.43 nM
  CC50: > 100 µM
CCRF-CEM
  GI50: 0.13 nM
  CC50: > 100 µM
IGROV1
  GI50: 0.24 nM
  CC50: 94.2 µM

## COc1cc(/C(C#N)=C/c2cnc3ccccc3c2)cc(OC)c1OC [PNR-5-10, (Z)-3-(quinolin-3-yl)-2-(3,4,5-trimethoxyphenyl)acrylonitrile]
786-0
  GI50: 6290 nM
  CC50: > 100 µM
CAKI-1
  GI50: 346 nM
  CC50: > 100 µM
SF-268
  GI50: 9170 nM
  CC50: > 100 µM
SF-295; [3]
  GI50: 556 nM
  CC50: > 100 µM
HCT-15
  GI50: 1080 nM
  CC50: > 100 µM
NCI-H23
  GI50: 2930 nM
  CC50: > 100 µM
NCI-H460
  GI50: 2050 nM
  CC50: > 100 µM
SNB-19
  GI50: 5230 nM
  CC50: > 100 µM
HT29
  GI50: 421 nM
  CC50: > 100 µM
SK-OV-3
  GI50: 1340 nM
  CC50: > 100 µM
BT-549
  GI50: 1430 nM
  CC50: > 100 µM
KM12
  GI50: 436 nM
  CC50: > 100 µM
NCI-H322M
  GI50: 27.4 µM
  CC50: > 100 µM
SN12C
  GI50: 1940 nM
  CC50: > 100 µM
NCI-H226
  GI50: > 100000 nM
  CC50: > 100 µM
K-562
  GI50: 444 nM
  CC50: > 100 µM
SR
  GI50: 569 nM
  CC50: > 100 µM
U251
  GI50: 1700 nM
  CC50: > 100 µM
UO-31
  GI50: 580 nM
  CC50: > 100 µM
MALME-3M
  GI50: 691 nM
  CC50: > 100 µM
NCI/ADR-RES
  GI50: 343 nM
  CC50: > 100 µM
HCT-116
  GI50: 464 nM
  CC50: > 100 µM
LOX-IMVI
  GI50: 645 nM
  CC50: > 100 µM
M14
  GI50: 540 nM
  CC50: > 100 µM
UACC-257
  CC50: > 100 µM
SW-620
  GI50: 420 nM
  CC50: > 100 µM
[1]; range over the potently inhibited cell lines, read-out: GI50 ranging (potently inhibited cancer cell lines)
  GI50: 227 to 911 nM
[1]; read-out: average GI50 value on all the cancer cell lines
  GI50: 2490 nM
[1]; share of the cancer cell lines potently inhibited
  potent growth inhibition on % of the cancer cell lines: 47%
CCRF-CEM
  GI50: 1380 nM
  CC50: > 100 µM
IGROV1
  GI50: 3150 nM
  CC50: > 100 µM

Reference: patent US9884842B2, “Combretastatin analogs” (The Board of Trustees of the University of Arkansas, priority 2013, dated 2018)
